Columns and labels:
Format in all cases: cell-based, human
SF3A1 = assay: qPCR splicing analysis, SF3A1 intron retention; conditions: for SF3A1 intron 6 retention (level of intron retention): HCT116, 4 h, 20 times GI50, qPCR relative to GAPDH
Experimental: (§1) HCT116 tumor cells were treated with each analogue at 20 times the G150 value (Table 12) for 4 hours and then cellular RNA was isolated and purified for qPCR. Primers were designed to evaluate intron retention or exon skipping, direct responses to splice modulator treatment. Genes evaluated included those involved in splicing regulation (SF3A1, SF3A3, SF3B1, SF3B2), apoptosis (MCL-1L), protein folding (DNAJB1), and cell cycle regulation (AURKA, PLK-1) relative to the unspliced control GAPDH. For alternative splicing regulator (SF2), primers were designed to evaluate gene expression, which changes in response splice modulator treatment for SF2 relative to the unspliced control GAPDH. (−) denotes untreated cells.
as §1, with “analogues” for “each analogue”, “100 nM (light grey), 250 nM (grey), or 500 nM (black)” for “20 times the G150 value (Table 12)”, “24 h” for “4 hours”, “(MCL-1L), and” for “(MCL-1L),”, “(DNAJB1),” for “(DNAJB1), and cell cycle regulation (AURKA, PLK-1)”, “(—)” for “(−)”
(§2) Next, we turned our efforts to explore the ability of these analogues to modulate splicing. […] We treated cells for 4 h so that we could evaluate early changes in splicing activity, and then cellular RNA was isolated and purified for analyses by qPCR (FIG. 14). Most importantly, none of the concentrations tested led to significant changes in cell viability, ensuring that changes in gene expression were not due to cell death.
(§3) For these studies, we evaluated the expression of genes involved in splicing regulation (SF3A1, SF3A3, SF3B1, SF3B2), apoptosis (MCL-1L), protein folding (DNAJB1), and cell cycle regulation (AURKA, PLK-1) relative to the unspliced control GAPDH. Primers were designed to evaluate intron retention or exon skipping, direct responses to splice modulator treatment. The master splicing regulator alternative splicing factor (SF2) was also evaluated, with the primers for this gene designed to evaluate overall gene expression, which changes in response to splice modulator treatment.
(§4) From this 4 h study (FIG. 14), a small set of analogs (1, 1b, 1g, 1d, 1e, 1i and 1j) were selected to evaluate if effects on splicing when presented for a longer 24 h period. […] Using identical procedures as that used for 4 h, HCT116 cells were treated with three concentrations (100 nM, 250 nM and 500 nM) of each analog for 24 h. Multiple concentrations were used as a means to check further validate the use of the GI50 concentration in our prior study (FIG. 14). As before, none of the concentrations tested led to significant changes in cell viability over the 24-hour time window, ensuring that changes in gene expression were not due to cell death.
(§5) Cells were treated with 1 or 1a-1j in media (McCoy's 5a (Life Technologies) supplemented with 10% FBS, 2 mM L-glutamine, and 100 U mL^−1 of penicillin and 100 μg mL^−1 of streptomycin 0.5% DMSO) for 4 h or 24 h. Untreated cells were considered were used as negative control. Total RNA was isolated using mirVana miRNA isolation kit (Life Technologies). A 1 μg sample of RNA was subjected to DNAseI from a TURBO DNA free kit (Life Technologies). The cDNA was prepared by using SuperScript III reverse transcriptase kit (Life Technologies). […]

SF3B2 = assay: qPCR splicing analysis, SF3B2 intron retention; conditions: for SF3B2 intron retention (level of intron retention): HCT116, 4 h, 20 times GI50, qPCR relative to GAPDH; for SF3B2 intron retention: HCT116, 24 h, 100, 250, 500 nM, compared to 1
Experimental: as §1
as §1, with “analogues” for “each analogue”, “100 nM (light grey), 250 nM (grey), or 500 nM (black)” for “20 times the G150 value (Table 12)”, “24 h” for “4 hours”, “(MCL-1L), and” for “(MCL-1L),”, “(DNAJB1),” for “(DNAJB1), and cell cycle regulation (AURKA, PLK-1)”, “(—)” for “(−)”
as §2, §3, §4, §5

HCT116 tumor cells = assay: qPCR structure-splicing profile over the gene panel; conditions: HCT116, 24 h, 100, 250, 500 nM, compared to 1
Experimental: as §1, with “analogues” for “each analogue”, “100 nM (light grey), 250 nM (grey), or 500 nM (black)” for “20 times the G150 value (Table 12)”, “24 h” for “4 hours”, “(MCL-1L), and” for “(MCL-1L),”, “(DNAJB1),” for “(DNAJB1), and cell cycle regulation (AURKA, PLK-1)”, “(—)” for “(−)”
as §3, §4
Cells were treated with 1 or 1a-1j in media (McCoy's 5a (Life Technologies) supplemented with 10% FBS, 2 mM L-glutamine, and 100 U mL^−1 of penicillin and 100 μg mL^−1 of streptomycin 0.5% DMSO) for 4 h or 24 h. Untreated cells were considered were used as negative control. Total RNA was isolated using mirVana miRNA isolation kit (Life Technologies). A 1 μg sample of RNA was subjected to DNAseI from a TURBO DNA free kit (Life Technologies). The cDNA was prepared by using SuperScript III reverse transcriptase kit (Life Technologies). The amount of unspliced RNA for different genes was determined using Power SYBR Green PCR master mix (Applied Biosystems) by qPCR using specific primers for each gene. qPCR using 2.5 μM of each primer was performed on 5 ng of the obtained cDNA. qPCR conditions were as follows: 95° C. for 10 min for one cycle, then 95° C. for 10 min for one cycle, then 95° C. for 30 s, 55° C. for 60 s, 72° C. for 60 s, for 40 cycles using the MXPro. Quantification cycle (Cq) values were identified for each sample, and then RNA levels were calculated using 2-ΔΔCT method. GAPDH was used as a control for normalization. At least three replicates were conducted for each compound. Namely, all genes explored in this study were evaluated from the same cell cultures. Here, individual cultures were used for each compound explored and at least three replicates were used for each compound. While experimental variation occurred between the different compound treatments, the levels of the different intron retention, exon skipping or RNA expression were collected from the same cellular material. Statistics were calculated using a standard one-way ANOVA; p values were represented so that * signifies p<0.0001. HCT116 were treated with analogs 1-1j ranging from 0.1-5000 nM for 72 hours, then cell viability was measured using the MTS assay. GI50 values and confidence intervals were calculated using GraphPad (Table 12).

SMILES | SF3A1 intron retention (SF3A1; HCT116, 24 h, 100, 250, 500 nM, compared to 1) | SF3B2 intron retention (level of intron retention) (SF3B2) | SF3B2 intron retention (SF3B2) | splicing activity over the genes tested (HCT116 tumor cells) | SF3A1 intron 6 retention (level of intron retention) (SF3A1)
CC[C@H](OC)[C@@H](C)[C@H]1O[C@@H]1[C@@H](O)[C@H](C)/C=C/C=C(\C)[C@H]1OC(=O)C[C@H](O)CC[C@@](C)(O)[C@@H](OC(C)=O)/C=C/[C@@H]1C [Analog 1d, 17S-FD-895] | concentration dependent increased intron retention | improved efficacy | concentration dependent increased intron retention | modest switch in gene selectivity | –
CC[C@H](OC)[C@@H](C)[C@H]1O[C@@H]1[C@@H](O)[C@H](C)/C=C/C=C(\C)[C@H]1OC(=O)C[C@@H](O)CC[C@@](C)(O)[C@@H](OC(C)=O)/C=C/[C@@H]1C [Analog 1g, 3S,17S-FD-895] | – | – | loss in intron retention | – | –
CC[C@H](OC)[C@@H](C)[C@@H]1O[C@H]1[C@@H](O)[C@H](C)/C=C/C=C(\C)[C@H]1OC(=O)C[C@H](O)CC[C@@](C)(O)[C@@H](OC(C)=O)/C=C/[C@@H]1C [Analog 1i, 17S,18S,19S-FD-895] | – | improved efficacy | – | drastic reduction in splicing activity | more effective than 1
CC[C@@H](OC)[C@H](C)[C@H]1O[C@@H]1[C@@H](O)[C@H](C)/C=C/C=C(\C)[C@H]1OC(=O)C[C@H](O)CC[C@@](C)(O)[C@@H](OC(C)=O)/C=C/[C@@H]1C [Analog 1j, 17S,20S,21R-FD-895] | – | improved efficacy | – | splicing profile comparable to 1i | more effective than 1

— patent US12172988B2, “Anticancer and antifungal splice modulators” (priority 2021, dated 2024)
